The values below come from patent publication US5043450A, “8-alkoxyquinolonecarboxylic acid and salts thereof” (priority 1986, dated 1991).

Holding throughout (test): Antibacterial spectra, MIC
Common to all, as to type: cell-based

Assay [1] has as its system Peptococcus magnus KY 017. The settings on record: Finegoldia magna, KY017; 10^6 cells/ml; Gram +; read-out: MIC.
The test system of another assay is E. coli ATCC 10536. The settings on record: Escherichia coli, ATCC10536.
The subject of assay [2] is S. aureus IID 670 (Terajima). The settings on record: Staphylococcus aureus, IID670; 10^6 cells/ml; Gram +; read-out: MIC.
Assay [3] relates to Propionibacterium acens 11828. To be noted: 10^6 cells/ml, Gram +, read-out: MIC.
In a further assay the test system is P. mirabilis IID 994. To be noted: Proteus mirabilis, IID994; 10^6 cells/ml; Gram -; read-out: MIC.
The next assay deals with B. fragilis 0558. To be noted: Bacteroides fragilis, 10^6 cells/ml, Gram -, read-out: MIC.
The subject of another assay is S. aureus Smith. The settings on record: Staphylococcus aureus; 10^6 cells/ml; Gram +; read-out: MIC.
Another assay deals with B. fragilis 25285. The settings on record: Bacteroides fragilis, 10^6 cells/ml, Gram -, read-out: MIC.
The test system of assay [4] is Veillonella parvula KYA 10790. To be noted: KYA10790, 10^6 cells/ml, Gram -, read-out: MIC.
The test system of assay [5] is Acinetobacter anitratus IID 876. The settings on record: Acinetobacter calcoaceticus, IID876; 10^6 cells/ml; Gram -; read-out: MIC.
Assay [6] deals with Peptostreptococcus anaerobius KYA 27337. To be noted: KYA27337, 10^6 cells/ml, Gram +, read-out: MIC.

Molecules are shown by their SMILES. Converted amounts (≈) assume the structure as drawn.

As usually defined, the MIC is the least concentration at which growth counts as inhibited. In the case of `CCOc1c(N2CCNCC2)c(F)cc2c(=O)c(C(=O)O)cn(C3CC3)c12` [Exp. 18, 1-cyclopropyl-6-fluoro-1,4-dihydro-8-ethoxy-4-oxo-7-(1-piperazinyl)-3-quinolinecarboxylic acid], the MIC is 0.78 µg/mL (≈ 2.08 µM) in [1]; at most 0.05 µg/mL in the assay on E. coli ATCC 10536; 0.39 µg/mL (≈ 1.04 µM) in [2]; 12.5 µg/mL (≈ 33.3 µM) in assay [3]; 0.1 µg/mL (≈ 0.266 µM) in the assay on P. mirabilis IID 994; 12.5 µg/mL (≈ 33.3 µM) with B. fragilis 0558. In addition, the MIC was 0.39 µg/mL (≈ 1.04 µM) in the assay on S. aureus Smith; 3.13 µg/mL (≈ 8.34 µM) with B. fragilis 25285; 0.78 µg/mL (≈ 2.08 µM) in [4]; 0.1 µg/mL (≈ 0.266 µM) in assay [5]; 3.13 µg/mL (≈ 8.34 µM) in assay [6].
